Measurements published in patent publication US20050100507A1, “Chemotactic peptide antagonists for imaging sites of inflammation” (Bracco Imaging S.p.A., priority 1998, published 2005).
Square brackets hold non-standard residues; d marks the D form. Ends that are not written are not given here. Peptide text beside a SMILES is read from it. * marks the point of attachment. 3‑but‑1‑enoxycarbonyl = 3-but-1-enoxycarbonyl (N-terminal capping group); 2‑quinoxazoyl = 2-quinoxazoyl (N-terminal capping group); Acetyl(9-fluorenyl) = O=C(CC1c2ccccc2-c2ccccc21)*; trans‑cinnamoyl = O=C(/C=C/c1ccccc1)*; N,N‑diethylcarbamoyl = CCN(CC)C(=O)*; Cyclopropanecarbonyl = O=C(C1CC1)*; iso‑Boc = not defined here; Nle = CCCC[C@H](N)C(=O)O; 2Furoyl = O=C(c1ccco1)*; Boc = CC(C)(C)OC(=O)*; For = O=C*

Assays:
Rat FPR = target: T1, Rat FPR (Rattus norvegicus, UniProt D4A7Q2); experiment: Competition binding with 6 nM 3H-fMLF to elicited rat PMNs; conditions: 6 nM 3H-fMLF, result in words; for competition binding of N-terminal modified NleLFK peptides (FIG. 8): peptides at 1 uM and 10 uM
T1 construct: endogenous in cells; host or cells: glycogen-elicited peritoneal neutrophils (PMNs) of Sprague-Dawley rats
T1 sequence (D4A7Q2 1-355): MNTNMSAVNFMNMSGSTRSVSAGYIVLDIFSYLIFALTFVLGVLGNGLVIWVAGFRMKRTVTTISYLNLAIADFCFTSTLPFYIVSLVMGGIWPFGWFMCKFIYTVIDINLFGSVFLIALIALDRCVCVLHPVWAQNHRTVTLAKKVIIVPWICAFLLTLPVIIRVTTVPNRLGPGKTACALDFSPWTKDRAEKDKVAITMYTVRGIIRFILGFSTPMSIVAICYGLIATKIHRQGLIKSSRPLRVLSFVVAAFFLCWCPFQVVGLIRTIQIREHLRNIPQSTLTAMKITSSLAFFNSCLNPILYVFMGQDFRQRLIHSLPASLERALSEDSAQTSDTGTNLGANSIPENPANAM
Procedure: (§1) Animals were sacrificed via administration of CO2 4 hours following peritoneal injection of 10 mL of 0.5% (w/v) oyster glycogen warmed to room temperature. Leukocyte harvesting via peritoneal lavage was performed using 20 mL of Hanks' buffered salt solution (HBSS−) containing 10 mM ethylene-diaminetetra-acetic acid (EDTA) disodium salt followed by a second lavage with 10 mL of HBSS− containing 10 mM EDTA. Exactly the same technique was performed on all rats with washes of the peritoneum prior to aspiration of samples approximating 1 minute. The volume of fluid recovered from each rat was approximately 20-25 mL and bloody lavages visibly containing significant red blood cell (RBC) populations were discarded.
(§2) Neutrophils isolated by peritoneal lavage were washed twice with 1 mL of HBSS− (without calcium chloride, magnesium chloride and magnesium sulfate) and centrifuged for ten minutes at 2000 rpms following each wash. PMNs utilized in functional assays were centrifuged at 25° C. while those used in binding assays were centrifuged at 4° C. to prevent internalization. A cold H2O RBC lysis was then performed with the addition of 9 mL of sterile ice-cold H2O and 1 mL of phosphate buffered saline (PBS) solution containing 0.1 M phosphate buffer, 0.027 M KCl and 1.37 M NaCl following resuspension of the sample in 1 mL of HBSS. Centrifugation was subsequently performed for ten minutes at 1600 rpms. White blood cell (WBC) differential stain containing saline, 2% acidic acid and phenol violet dye was used to identify the neutrophil population and trypan blue exclusion was used to determine viability of cells. As previously reported, 98% of leukocytes were neutrophils and approximately 95% of the cells were viable (Chen et al., 1996).
Competition binding assays for N-terminal capping groups and Re-libraries were conducted with 6 nM ^3H-fMLP in addition to the unlabelled competing analogue added at 1.0 uM and 10 uM to each well. […] Total binding in the competition assays was assessed in the presence of 1.0×10^6 PMNs per sample while non-specific binding was determined in the absence of cells. Each condition was performed in quadruplicate. Total activity added to each sample was determined from cpms obtained from a sample containing 6 nM ^3H-fMLF. Data was expressed as specific binding in fmols and converted to percent of total ^3H-fMLF binding (% control).
After a 1 hour incubation period at 4° C., the samples were harvested with the Tomtec Mach III Cell Harvester by vacuum aspiration onto 1.5 um pore size Skatron glass-fibre filter mats pre-treated with 0.1% polyethylenimine (w/v) for approximately 24 hours. Sample wells received three consecutive 12 second washes with 0.9% saline solution and 5 mL of liquid scintillation fluid was added to collected filters. Filters were counted for 2 minutes in the Beckman β-counter following exposure to scintillation fluid for 15 hours. Data was expressed in terms of specific binding in fmols converted to percent of total ^3H-fMLF binding (% control).
(§3) The curve-fitting program Prism was used to calculate KD, IC50 and EC50 values by fitting data to the one-site binding equations A, B and C respectively. • A. Equation: One site binding (hyperbola) Y=Bmax*X/(KD+X) • B. Equation: One site competition Y=Bottom+(Top−Bottom)/(1+10^(X−LogIC50)); with x=log (concentration) and y=binding • C. […] Additionally, Graph fit software was used to perform Scatchard analysis of saturation binding data and to confirm KD and Bmax values generated by Prism software.

elicited rat PMNs [1] = assay type: cell-based; conditions: for % Control (1 uM) / % Control (10 uM): MPO release, PMNs without fMLF, ± S.E.M.; for % Control (1 uM): test peptide 1 uM; for % Control (10 uM): test peptide 10 uM; for EC50: 4 h
Procedure: as §1, §2
(§4) 0.5×10^6 PMNs per sample were incubated in 96-well Millipore Multiscreen 0.65 um filter plates. In a final volume of 150 uL, 50 uL of the respective fMLP analogues (10 uM to 1 pM) and/or fMLP (10 uM to 1.0 uM) were incubated with isolated PMNs pre-treated with cytochalasin B (5 ug/mL) for 10 minutes. Following a 30 minute incubation period at room temperature, the supernatant was collected into a 96-well polypropylene plate with the Millipore vacuum apparatus. A stock solution of o-phenylenediamine (OPD) was made to contain 2.5 mg of OPD, 5 ul of H2O2 and 10 mL HBSS+ and supernatant samples were subsequently incubated with 50 uL of OPD solution. The reaction was stopped after 2 minutes by the addition of 2.5M H2SO4. Photometric analysis was performed with the Thermomax Microplate Reader with optical density (O.D.490) values being read at a wavelength of 490 nm. Absorbance was measured against a blank containing 150 μl of HBSS+ which was subtracted from wells containing cells and the various treatments. MPO release was expressed as a percentage of the total release of myeloperoxidase in control wells containing cells ±fMLF.
as §3

elicited rat PMNs [2] = experiment: Myeloperoxidase release in elicited rat PMNs co-stimulated with 0.1 uM fMLF; assay type: cell-based; conditions: for antagonist function on MPO release in fMLF stimulated rat PMNs: 0.1 uM fMLF, inhibition at 10 uM, result in words; for % Control MPO release (1 uM capping group + 0.1 uM fMLF): 1 uM test peptide + 0.1 uM fMLF; for % Control MPO release (1 uM capping group + 0.1 uM fMLF) / % Control MPO Release (10 uM capping group + 0.1 uM fMLF): ± S.E.M.; for % Control MPO Release (10 uM capping group + 0.1 uM fMLF): 10 uM test peptide + 0.1 uM fMLF
Procedure: as §1, §2
as §4, with “In a final volume of 150 uL, 50 uL of the respective fMLP analogues (10 uM to 1 pM) and/or fMLP (10 uM to 1.0 uM) were incubated with isolated PMNs pre-treated with cytochalasin B (5 ug/mL) for 10 minutes.” left out

| Compound | % Control (1 uM) (elicited rat PMNs [1]) | % Control (10 uM) (elicited rat PMNs [1]) | further results |
| --- | --- | --- | --- |
| N,N-diethylcarbamoyl-NleLFK ({N,N‑diethylcarbamoyl}-[Nle]LFK) [Capping Group 6] | 113.8 ± 14.3 % control | 109.6 ± 3.3 % control | competition binding of N-terminal modified NleLFK peptides (FIG. 8) (Rat FPR; listed as 6): did not significantly decrease the amount of ^3H-fMLF binding; competition binding of N-terminal modified NleLFK peptides (FIG. 8) (Rat FPR; listed as N,N-diethylcarbamoyl-NleLFK): inhibit ^3H-fMLF binding; antagonist function on MPO release in fMLF stimulated rat PMNs (elicited rat PMNs [2]): inhibited MPO release; % Control MPO release (1 uM capping group + 0.1 uM fMLF) (elicited rat PMNs [2]): 283.3 ± 25.1 % control; % Control MPO Release (10 uM capping group + 0.1 uM fMLF) (elicited rat PMNs [2]): 249.9 ± 6.2 % control |
| Capping Group 16: Fluorenylmethylcarbonyl N-terminal capping group attached to peptide NleLFK ({Acetyl(9-fluorenyl)}-[Nle]LFK) | 84.1 ± 27.6 % control | 59.9 ± 19.0 % control | competition binding of N-terminal modified NleLFK peptides (FIG. 8) (Rat FPR): did not significantly decrease the amount of ^3H-fMLF binding; antagonist function on MPO release in fMLF stimulated rat PMNs (elicited rat PMNs [2]): exhibited antagonist function in fMLF stimulated cells; % Control MPO release (1 uM capping group + 0.1 uM fMLF) (elicited rat PMNs [2]): 161.7 ± 6.2 % control; % Control MPO Release (10 uM capping group + 0.1 uM fMLF) (elicited rat PMNs [2]): 108.9 ± 28.5 % control |
| CSCC[C@H](NC=O)C(=O)N[C@@H](CC(C)C)C(=O)N[C@@H](Cc1ccccc1)C(=O)N[C@@H](CCCCN)C(=O)O [fMLFK, N-formyl-methionyl-leucyl-phenylalanyl-lysine, reference compound] (For-MLFK-OH) | – | – | EC50 (elicited rat PMNs [1]): 140 nM |
| N-t-BocMLFK: known antagonist used as standard in MPO release assay (Boc-MLFK) [reference compound] | 89.8 ± 32.5 % control | 86.7 ± 31.1 % control | – |
| cycloproylcarbonyl-NleLFK (Cyclopropanecarbonyl-[Nle]LFK) [Capping Group 17] | 108.0 ± 14.5 % control | 91.8 ± 16.3 % control | inhibition of 3H-fMLF binding at 10 uM compared with iso-BocMLFK (FIG. 8) (Rat FPR; peptide 10 uM): inhibited ^3H-fMLF binding to a degree comparable with known antagonist iso-BocMLFK; competition binding of N-terminal modified NleLFK peptides (FIG. 8) (Rat FPR; listed as 17): do not nullify binding affinity; competition binding of N-terminal modified NleLFK peptides (FIG. 8) (Rat FPR; listed as cycloproylcarbonyl-NleLFK): inhibit ^3H-fMLF binding |
| Capping Group 3: Furoyl N-terminal capping group attached to peptide NleLFK (2Furoyl-[Nle]LFK) | 93.0 ± 9.0 % control | 102.5 ± 9.0 % control | – |
| CSCC[C@H](NC=O)C(=O)N[C@@H](CC(C)C)C(=O)N[C@@H](Cc1ccccc1)C(=O)O [fMLF, N-formyl-methionyl-leucyl-phenylalanine, reference compound] | – | – | EC50 (elicited rat PMNs [1]): 110 nM |
| Capping Group 15: trans-cinnamoyl N-terminal capping group attached to peptide NleLFK ({trans‑cinnamoyl}-[Nle]LFK) | 133.1 ± 10.3 % control | 195.8 ± 14.3 % control | – |
| Capping Group 14: 2-quinoxazoyl N-terminal capping group attached to peptide NleLFK ({2‑quinoxazoyl}-[Nle]LFK) | 117.2 ± 18.6 % control | 129.8 ± 6.0 % control | antagonist function on MPO release in fMLF stimulated rat PMNs (elicited rat PMNs [2]): significant inhibition; % Control MPO release (1 uM capping group + 0.1 uM fMLF) (elicited rat PMNs [2]): 323.2 ± 16.8 % control; % Control MPO Release (10 uM capping group + 0.1 uM fMLF) (elicited rat PMNs [2]): 239.8 ± 9.0 % control |
| Capping Group 2: 2-methoxyacetyl N-terminal capping group attached to peptide NleLFK ({2‑methoxyacetyl}-[Nle]LFK) | 95.0 ± 15.7 % control | 97.1 ± 37.1 % control | – |
| Capping Group 7: 3-but-1-enoxycarbonyl N-terminal capping group attached to peptide NleLFK ({3‑but‑1‑enoxycarbonyl}-[Nle]LFK) | 133.8 ± 13.3 % control | 229.3 ± 13.3 % control | – |
| iso-BocMLFK: known antagonist, fMLP peptide analogue synthesized in-house ({iso‑Boc}-MLFK; reading uncertain) [reference compound] | 99.6 ± 16.5 % control | 94.7 ± 20.2 % control | antagonist function on MPO release in fMLF stimulated rat PMNs (elicited rat PMNs [2]): significantly inhibiting fMLF-stimulated MPO release; % Control MPO release (1 uM capping group + 0.1 uM fMLF) (elicited rat PMNs [2]): 215.4 ± 66.3 % control; % Control MPO Release (10 uM capping group + 0.1 uM fMLF) (elicited rat PMNs [2]): 179.9 ± 50.6 % control |
| Capping Group 4: Phenylthioacetyl N-terminal capping group attached to peptide NleLFK (phenylthioacetyl-[Nle]LFK) | 138.7 ± 28.6 % control | 119.7 ± 20.3 % control | – |
| Capping Group 12: 2-acetamido-5-thiazolesulfonyl N-terminal capping group attached to peptide NleLFK ({2‑acetamido‑5‑thiazolesulfonyl}-[Nle]LFK) | 117.5 ± 7.8 % control | 175.5 ± 12.0 % control | – |
